Where two headings read alike, the source gives them in different places.
How the values were obtained:
[1] = biological target: T1, wild-type Aedes aegypti EcR (AaEcR-DEF) (Aedes aegypti, UniProt P49880); assay: Two-hybrid gene switch assay, AaEcR-DEF in NIH3T3 cells; details: AaEcR; for rel max FI (20E), AA: max fold induction at any concentration relative to 20E; for rel max FI (PoA), AA: max fold induction at any concentration relative to PoA; for EC50: NIH3T3 cells, luciferase, 48 h, ligand 0.01-33 μM
T1 sequence (P49880 405-776 limits assumed): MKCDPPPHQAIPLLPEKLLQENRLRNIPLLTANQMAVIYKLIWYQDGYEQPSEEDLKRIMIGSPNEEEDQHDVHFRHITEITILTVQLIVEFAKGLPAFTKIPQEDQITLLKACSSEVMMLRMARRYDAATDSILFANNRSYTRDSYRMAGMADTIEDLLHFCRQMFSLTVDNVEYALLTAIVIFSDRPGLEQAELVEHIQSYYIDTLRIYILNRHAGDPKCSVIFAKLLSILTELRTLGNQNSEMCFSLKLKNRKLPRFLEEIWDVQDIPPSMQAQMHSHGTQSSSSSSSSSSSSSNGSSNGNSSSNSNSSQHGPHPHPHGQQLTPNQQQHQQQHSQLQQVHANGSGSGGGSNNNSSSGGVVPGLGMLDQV

[2] = biological target: T2, Tenebrio molitor EcR (TmEcR-DEF) (Tenebrio molitor, UniProt O02035); assay: Two-hybrid gene switch assay, TmEcR-DEF in NIH3T3 cells; details: for Emax: NIH3T3, 48 h
T2 sequence (O02035 194-491): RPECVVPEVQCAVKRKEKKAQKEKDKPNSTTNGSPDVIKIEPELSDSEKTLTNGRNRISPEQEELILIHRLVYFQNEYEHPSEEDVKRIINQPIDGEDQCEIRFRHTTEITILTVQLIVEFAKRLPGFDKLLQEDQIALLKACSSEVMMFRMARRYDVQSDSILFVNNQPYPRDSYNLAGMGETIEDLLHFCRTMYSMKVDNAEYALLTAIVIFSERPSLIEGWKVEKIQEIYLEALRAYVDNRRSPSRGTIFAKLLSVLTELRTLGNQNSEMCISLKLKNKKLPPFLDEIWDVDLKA
T2 sequence (P28704 285-520 partner): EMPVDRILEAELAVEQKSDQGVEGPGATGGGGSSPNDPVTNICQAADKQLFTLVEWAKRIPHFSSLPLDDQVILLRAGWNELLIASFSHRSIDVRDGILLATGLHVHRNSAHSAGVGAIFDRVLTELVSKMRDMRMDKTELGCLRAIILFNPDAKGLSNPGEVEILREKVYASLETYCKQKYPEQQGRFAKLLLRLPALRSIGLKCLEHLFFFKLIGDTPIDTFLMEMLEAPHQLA

In the case of `COC1C[C@H]2C(=O)C=C3[C@H](CC[C@]4(C)[C@@H]([C@@](C)(O)C(CCC(C)(C)O)OC)CC[C@@]34OC)[C@@]2(C)CC1OC` (stereo partly drawn) [20E-2,3,14,22-tetramethyl ether], the “rel max FI (20E), AA” value [1] is reported as 0.07, the “rel max FI (PoA), AA” value [1] is reported as 0.02 and the EC50 ([1]; read-out: EC50 (μM), AA) is reported as over 33 µM. For the same molecule, the “rel max FI (20E), TM” value ([2]; TmEcR, max fold induction at any concentration relative to 20E) was 0.05, the “rel max FI (PoA), TM” value ([2]; TmEcR, max fold induction at any concentration relative to PoA) was 0.02 and the EC50 ([2]; read-out: EC50 (μM), TM, TmEcR, NIH3T3 cells, luciferase, 48 h, ligand 0.01-33 μM) was over 33 µM.

With `CO[C@H]1C[C@@]2(C)[C@@H](C[C@H]1O)C(=O)C=C1[C@@H]2CC[C@]2(C)[C@@H]([C@@](C)(O)[C@@H](CCC(C)(C)O)OC)CC[C@@]12O` [20E-2,22-dimethyl ether] the “rel max FI (20E), AA” value [1] was 2.34, the “rel max FI (PoA), AA” value [1] was 0.80 and the EC50 ([1]; EC50 (μM), AA) was about 8 µM. For the same molecule, the EC50 [2] was about 10 µM, the Emax ([2]; read-out: rel max FI (20E), TM) was 24% and the Emax ([2]; read-out: rel max FI (PoA), TM) was 13%.

`CO[C@H]1C[C@@]2(C)[C@@H](C[C@H]1O)C(=O)C=C1[C@@H]2CC[C@]2(C)[C@@H]([C@@](C)(O)[C@H](O)CCC(C)(C)O)CC[C@@]12O` [20E-2-methyl ether] was tested, and the “rel max FI (20E), AA” value [1] was 0.87, the “rel max FI (PoA), AA” value [1] was 0.30 and the EC50 ([1]; EC50 (μM), AA) was about 10 µM. It also gave an EC50 [2] of over 33 µM, an Emax ([2]; read-out: rel max FI (20E), TM) of 7% and an Emax ([2]; read-out: rel max FI (PoA), TM) of 4%.

With `CO[C@@H]1C[C@H]2C(=O)C=C3[C@H](CC[C@]4(C)[C@@H]([C@@](C)(O)[C@@H](CCC(C)(C)O)OC)CC[C@@]34O)[C@@]2(C)C[C@@H]1O` [20E-3,22-dimethyl ether] the “rel max FI (20E), AA” value [1] was 2.32, the “rel max FI (PoA), AA” value [1] was 0.79 and the EC50 ([1]; EC50 (μM), AA) was 7.15 µM. It also gave an EC50 [2] of about 6 µM, an Emax ([2]; read-out: rel max FI (20E), TM) of 137% and an Emax ([2]; read-out: rel max FI (PoA), TM) of 71%.

`CO[C@@H]1C[C@H]2C(=O)C=C3[C@H](CC[C@]4(C)[C@@H]([C@@](C)(O)[C@H](O)CCC(C)(C)O)CC[C@@]34O)[C@@]2(C)C[C@@H]1O` [20E-3-methyl ether] was tested, and the “rel max FI (20E), AA” value [1] was 1.75, the “rel max FI (PoA), AA” value [1] was 0.60 and the EC50 ([1]; EC50 (μM), AA) was about 10 µM. For the same molecule, the EC50 [2] was about 10 µM, the Emax ([2]; read-out: rel max FI (20E), TM) was 114% and the Emax ([2]; read-out: rel max FI (PoA), TM) was 59%.

`CO[C@H](CCC(C)(C)O)[C@](C)(O)C1CC[C@@]2(O)C3=CC(=O)C4C[C@@H](O)[C@@H](O)CC4(C)C3CCC12C` (stereo partly drawn) [20E-22-methyl ether] was tested, and the “rel max FI (20E), AA” value [1] was 2.52, the “rel max FI (PoA), AA” value [1] was 0.86 and the EC50 ([1]; EC50 (μM), AA) was 1.04 µM. It also gave an EC50 [2] of 7.08 µM, an Emax ([2]; read-out: rel max FI (20E), TM) of 158% and an Emax ([2]; read-out: rel max FI (PoA), TM) of 81%.
